According to US20230000996A1, “RAPAFUCIN DERIVATIVE COMPOUNDS AND METHODS OF USE THEREOF” (The Johns Hopkins University, priority 2019, published 2023):
Numbered stars: 1 amine (or outer) side, 2 acyl side, 3 side chain; on linkers, the order of the positions; unused ones are H or OH. Square brackets hold non-standard residues; d marks the D form. Side chains are listed from the residue outwards. Peptide text beside a SMILES is read from it. * marks the point of attachment. X1 = COc1ccc(CC[C@@H](N[*:1])c2cccc(OCC(=O)[*:2])c2)cc1OC; X2 = CN(CCC=CC(=O)OCC(C)(C)C(=O)C(=O)[*:2])[*:1]; NMeY = CN[C@@H](Cc1ccc(O)cc1)C(=O)O; Pip = O=C(O)[C@@H]1CCCCN1; Morpholide = C1CN(*)CCO1; CO = O=C([*:1])[*:2]; Sar = CNCC(=O)O

Legend:
[1] = tested on: Rat Renal Ischemia-Reperfusion model; assay: Rat Renal Ischemia-Reperfusion model; type: in vivo, Sprague Dawley Rats; settings: treated 30 min prior to right nephrectomy and left renal clamping; 24 hours of reperfusion; 1593 at 12 or 4 mg/kg, 1594 at 4 mg/kg
Procedure: Briefly, Sprague Dawley Rats were treated test compound 30 min prior to a right nephrectomy and with underwent clamping of the left renal clamping for 15 mins. After 24 hours of reperfusion, blood was collected to measure biomarkers for kidney damage and the kidney was removed for histology. […] SHAM indicates an animal group with right nephrectomy without ischemic injury. VE indicates vehicle. DPA indicates dipyridamole administered in a dosage of 10 mg/kg. Compound 1593 was administered at a high dosage (12 mg/kg) or a low dosage (4 mg/kg). Compound 1594 was administered at 4 mg/kg.

[2] = Nucleoside uptake, single concentration assay (Rel.Uptake); cell line indicated in each table; type: cell-based; settings: nucleoside uptake, single concentration assay, 293T cells, response relative to DMSO
Procedure: (§1) Nucleoside Uptake Assay (uptake). Nuceloside uptake assays were performed with using 3H-Thymidine as described in Guo et al. (2018) Nat. Chem. 11:254-63. Specific cell lines are indicated in each assay and cultured in complete growth media. Activity is scored according to the IC50 values relative to DMSO control. “Low” indicates an IC50 greater than 600 nM, “Medium” indicates an IC50 between 300 nM and 600 nM “High” indicates an IC50 less than 300 nM. “Rel.Uptake” refers to uptake activity characterization relative to a single concentration assay. “Low” indicates a response greater than 0.6 times the activity relative to DMSO, “Medium” indicates a response between 0.6 and 0.3 times the activity relative to DMSO, “High” indicates a response less than 0.3 times the activity relative to DMSO.

NCI-H929 = assay: Cell proliferation, single concentration assay (Rel. Prolif.), response relative to DMSO; type: cell-based; settings: NCI-H929 cells, activity relative to DMSO
H929 = assay: Cell proliferation assay (Prolif.), H929; type: cell-based; settings: H929 cells; scored relative to DMSO control
293T = assay: Nucleoside uptake assay (3H-Thymidine), IC50 scored relative to DMSO control; type: cell-based; settings: 293T cells
Procedure: as §1

A549 = assay: Cell proliferation assay (Prolif.), IC50 scored relative to DMSO control; type: cell-based; settings: A549 cells; for Prolif, A549: IC50 class relative to DMSO control; for Rel. Prolif., A549: scored low/medium/high
Procedure: Cell Proliferation Assay (Prolif.) Guo et al. (2018) Nat. Chem. 11:254-63. Specific cell lines are indicated in each assay and cultured in complete growth media. Activity is scored according to the IC50 values relative to DMSO control. “Low” indicates an IC50 greater than 600 nM, “Medium” indicates an IC50 between 300 nM and 600 nM “High” indicates an IC50 less than 300 nM. “Rel.Uptake” refers to uptake activity characterization relative to a single concentration assay. “Low” indicates a response greater than 0.6 times the activity relative to DMSO, “Medium” indicates a response between 0.6 and 0.3 times the activity relative to DMSO, “High” indicates a response less than 0.3 times the activity relative to DMSO.

[3] = proliferation response relative to DMSO control

Question: Which “efficacy in Rat Renal Ischemia-Reperfusion model” value [1] does the source give for `COc1ccc(CC[C@H]2OC(=O)[C@@H]3CCCCN3C(=O)C(=O)C(C)(C)COC(=O)/C=C/CCN(C)C(=O)[C@H](CC(C)C)N(C)C(=O)[C@H]3CCCN3C(=O)[C@H](Cc3ccccc3)NC(=O)[C@H](c3ccccc3)NC(=O)CCC(=O)Nc3cccc2c3)cc1OC` [Compound 1594] here?
Answer: efficacious

Question: What about the “Rel. Uptake, 293T” value [2] of the same molecule?
Answer: Low (“Low” indicates a response greater than 0.6 times the activity relative to DMSO)

Question: Which “Rel. Prolif., NCI-H929” value (NCI-H929) does the source give for `COc1ccc(CC[C@H]2OC(=O)[C@@H]3CCCCN3C(=O)C(=O)C(C)(C)COC(=O)C=CCCN(C)C(=O)[C@@H](Cc3ccccc3)NC(=O)CN(C)C(=O)[C@@H](Cc3ccccc3)NC(=O)[C@H](Cc3ccc(OC(=O)N4CCOCC4)cc3)N(C)C(=O)CCC(=O)Nc3cccc2c3)cc1OC` [Compound 869] here?
Answer: low

Question: For `COc1ccc(CC[C@H]2OC(=O)[C@@H]3CCCCN3C(=O)C(=O)C(C)(C)COC(=O)C=CCCN(C)C(=O)[C@@H](Cc3ccccc3)NC(=O)CN(C)C(=O)[C@@H](Cc3ccccc3)NC(=O)[C@H](Cc3ccc(OC(=O)N4CCOCC4)cc3)N(C)C(=O)COc3cc(F)cc2c3)cc1OC` [Compound 868], which “Rel. Prolif., NCI-H929” value (NCI-H929) is on record?
Answer: low

Question: Which “Prolif. H929” value (H929) does the source give for `COc1ccc(CC[C@H]2NC(=O)[C@@H]3CCCCN3C(=O)C(=O)C(C)(C)COC(=O)C=CCCN(C)C(=O)[C@@H](Cc3ccccc3)NC(=O)CN(C)C(=O)[C@@H](Cc3ccccc3)NC(=O)[C@H](Cc3ccc(OC(=O)N4CCOCC4)cc3)N(C)C(=O)COc3cccc2c3)cc1OC` [Compound 877] (cyclo([NMeY]([CO-Morpholide])[dF][Sar][dF][X2][Pip][X1])) here?
Answer: low

Question: Which results are given for `COc1ccc(CC[C@H]2NC(=O)[C@@H]3CCCCN3C(=O)C(=O)C(C)(C)COC(=O)C=CCCN(C)C(=O)[C@H](CC(C)C)N(C)C(=O)[C@H]3CCCN3C(=O)[C@H](Cc3ccccc3)N(C)C(=O)C(c3ccccc3)NC(=O)CCC(=O)Nc3cccc2c3)cc1OC` (stereo partly shown) [Compound 1557]?
Answer: Uptake, 293T (293T; 3H-Thymidine uptake, IC50 class relative to DMSO control): high; Rel. Uptake, 293T [2]: high

Question: Which “Rel. Prolif., NCI-H929” value (NCI-H929) does the source give for `COc1ccc(CC[C@H]2OC(=O)[C@@H]3CCCCN3C(=O)C(=O)C(C)(C)COC(=O)C=CCCN(C)C(=O)[C@@H](Cc3ccccc3)NC(=O)CN(C)C(=O)[C@@H](Cc3ccccc3)NC(=O)[C@H](Cc3ccc(OC(=O)N4CCOCC4)cc3)N(C)C(=O)COc3cccc2c3F)cc1OC` [Compound 867] here?
Answer: low

Question: With `COc1ccc(CC[C@H]2OC(=O)[C@@H]3CCCCN3C(=O)C(=O)C(C)(C)COC(=O)C=CCCN(C)C(=O)[C@H](CC(C)C)N(C)C(=O)[C@H]3CCCN3C(=O)[C@H](Cc3ccc(C(=O)Nc4ccccc4)cc3)NC(=O)[C@H](c3ccccc3)NC(=O)CCC(=O)Nc3cccc2c3)cc1OC` [Compound 1559] as the molecule, how does the “Uptake, 293T” value (293T; nucleoside uptake) read?
Answer: medium

Question: What about the “Rel. Uptake, 293T” value [2] of the same molecule?
Answer: medium

Question: Which “Prolif, A549” value (A549) does the source give for `CCCC[C@H]1C(=O)N[C@@H](Cc2ccc3ccccc3c2)C(=O)N(C)[C@@H](COC(C)(C)C)C(=O)NCC(=O)N(C)CCC=CC(=O)OCC(C)(C)C(=O)C(=O)N2CCCC[C@H]2C(=O)O[C@H](CCc2ccc(OC)c(OC)c2F)c2cccc(c2)OCC(=O)N1C` [Compound 570] here?
Answer: me- dium

Question: What about the “Rel. Prolif., A549” value (A549; [3]) of the same molecule?
Answer: medium

Question: What does the source list for `CCCC[C@H]1C(=O)N[C@@H](Cc2ccc3ccccc3c2)C(=O)N(C)[C@@H](COC(C)(C)C)C(=O)NCC(=O)N(C)CCC=CC(=O)OCC(C)(C)C(=O)C(=O)N2CCCC[C@H]2C(=O)O[C@H](CCc2ccc(OC)c(OC)c2O)c2cccc(c2)OCC(=O)N1C` [Compound 565]?
Answer: Prolif, A549 (A549): me- dium; Rel. Prolif., A549 (A549; [3]): medium

Question: Which “Prolif, A549” value (A549) does the source give for `CCCC[C@H]1C(=O)N[C@@H](Cc2ccc3ccccc3c2)C(=O)N(C)[C@@H](COC(C)(C)C)C(=O)NCC(=O)N(C)CCC=CC(=O)OCC(C)(C)C(=O)C(=O)N2CCCC[C@H]2C(=O)O[C@H](CCc2cc(OC)c(OC)cc2O)c2cccc(c2)OCC(=O)N1C` [Compound 567] here?
Answer: me- dium

Question: What about the “Rel. Prolif., A549” value (A549; [3]) of the same molecule?
Answer: medium

Question: What does the source list for `COc1ccc(CC[C@H]2OC(=O)[C@@H]3CCCCN3C(=O)C(=O)C(C)(C)COC(=O)/C=C/CCN(C)C(=O)[C@H](CC(C)C)N(C)C(=O)[C@H]3CCCN3C(=O)[C@H](Cc3ccc(OCC(=O)O)cc3)NC(=O)[C@H](c3ccccc3)NC(=O)CCC(=O)Nc3cccc2c3)cc1OC` [Compound 1593]?
Answer: efficacy in Rat Renal Ischemia-Reperfusion model [1]: efficacious; Rel. Uptake, 293T [2]: High (“High” indicates a response less than 0.3 times the activity relative to DMSO)

Question: For `C=CC(=O)OCC(C)(C)C(=O)C(=O)N1CCCC[C@H]1C(=O)O[C@H](CCc1ccc(OC)c(OC)c1)c1cncc(NC(=O)CCC(=O)OC(C)(C)C)n1` [Compound 13], which “Rel. Prolif., A549” value (A549; proliferation response relative to DMSO, single concentration) is on record?
Answer: low
